Here are results for nine compounds from PubChem BioAssay (NCI).

Each structure is given as a SMILES string.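 Five compound concentrations were applied to cells in 96-well plates for 48 hours; endpoints were derived by simple linear interpolation of the resulting dose-response curve. GI50: concentration for 50% inhibition of growth. Definition used: TGI = concentration required for complete inhibition of growth.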 Some results are limits rather than exact numbers.

Test systems include MCF7 breast; DU-145 prostate; SK-MEL-28 melanoma; SN12C renal; DMS 114 small cell lung; OVCAR-8 ovarian; RPMI-8226 leukemia; SK-OV-3 ovarian; SF-268 CNS; LXFL 529 NSCLC; A549 NSCLC.
Holding throughout (assay): NCI-60 cell line screen, 48 h

Consider `Cc1[nH]n(C(=O)c2ccccc2O)c(=O)c1/C=C1\C(=O)C=Cc2ccccc21`, for which the TGI with MCF7 breast was 15.1 µM; in the experiment on DU-145 prostate, 48.6 µM; in the experiment with SK-MEL-28 melanoma, 71.6 µM; in the experiment with SN12C renal, 13.6 µM; in the experiment on DMS 114 small cell lung, 0.801 µM; with OVCAR-8 ovarian, 28.5 µM. Also, the TGI with RPMI-8226 leukemia is 31.1 µM; in the experiment with SK-OV-3 ovarian, 22.1 µM; with SF-268 CNS, 31 µM; with LXFL 529 NSCLC it was 42.4 µM; with A549 NSCLC, 38.5 µM.
Regarding `OC(Cn1cncn1)(Cn1cncn1)c1ccc(Cl)cc1Cl`, the TGI in the experiment on SK-MEL-28 melanoma, with SN12C renal, in the experiment with DMS 114 small cell lung, in the experiment with OVCAR-8 ovarian, in the experiment on RPMI-8226 leukemia and in the experiment on SK-OV-3 ovarian was more than 100 µM throughout. The TGI in the experiment on SF-268 CNS, with LXFL 529 NSCLC and in the experiment on A549 NSCLC was more than 100 µM in each case.
With `CC1(c2cccc(C3CCC4(C=CC3=O)OCCO4)c2)OCCO1` (stereo unspecified), the TGI in the experiment with MCF7 breast amounted to 25.9 µM; in the experiment with DU-145 prostate it was 31.8 µM; in the experiment on SK-MEL-28 melanoma, 29.6 µM; in the experiment with SN12C renal, 27.7 µM; in the experiment on DMS 114 small cell lung it was 3.68 µM; with OVCAR-8 ovarian, 30.9 µM. In addition, the TGI in the experiment with RPMI-8226 leukemia is 28.9 µM; with SK-OV-3 ovarian it was more than 67.5 µM; in the experiment on SF-268 CNS, 36 µM; with LXFL 529 NSCLC, 3.97 µM; in the experiment on A549 NSCLC, 34 µM.
In the case of `N#Cc1nn(-c2ccc(Cl)cc2)c(N)c2c(=N)n3nc(-c4ccccc4)cc3nc12`, the TGI with SN12C renal was more than 100 µM; with OVCAR-8 ovarian, more than 100 µM; in the experiment with SK-OV-3 ovarian it was 29.3 µM; in the experiment with LXFL 529 NSCLC it was more than 54.4 µM; in the experiment on A549 NSCLC it was more than 42.1 µM.
Regarding `CC1OC(OC2C(CO)OC(O[C@H]3CC[C@@]4(C)C(=CC[C@H]5[C@@H]6C[C@@H]7O[C@](O)(CC[C@@H](C)COC8OC(CO)C(O)C(O)C8O)[C@@H](C)[C@@H]7[C@@]6(C)CC[C@@H]54)C3)C(OC3OC(C)C(O)C(O)C3O)C2O)C(O)C(O)C1O` (stereo partly specified), the TGI in the experiment on MCF7 breast came out at 5.93 µM; with DU-145 prostate, 4.97 µM; with SK-MEL-28 melanoma, 7.55 µM; in the experiment with SN12C renal it was 6.95 µM; with OVCAR-8 ovarian, 4.09 µM; with RPMI-8226 leukemia, 10.2 µM. Besides, the results for the TGI in the experiment with SK-OV-3 ovarian, in the experiment on SF-268 CNS and with A549 NSCLC were 7.34 µM, 8.33 µM and 3.16 µM, respectively. Further, in the experiment with SN12C renal, the GI50 was 2.71 µM.
In the case of `C[Si](C)(C)C#C[I+]c1ccccc1`, the TGI with SK-MEL-28 melanoma is more than 100 µM; with SN12C renal, 64.7 µM; in the experiment on DMS 114 small cell lung, 39.7 µM; with OVCAR-8 ovarian, 50.1 µM; in the experiment with SK-OV-3 ovarian, more than 100 µM; in the experiment with SF-268 CNS, more than 100 µM. Besides, the figures for the TGI in the experiment on LXFL 529 NSCLC and in the experiment with A549 NSCLC were 95.2 µM and more than 100 µM, respectively.
Consider `CCOC(=O)c1cc(-c2ccc(OC)c(OC)c2)cn1C`, for which the TGI in the experiment with MCF7 breast, with DU-145 prostate, in the experiment on SK-MEL-28 melanoma, in the experiment with SN12C renal, with OVCAR-8 ovarian and in the experiment on RPMI-8226 leukemia was more than 10 µM each time. For the same compound, the TGI in the experiment on SK-OV-3 ovarian, in the experiment on SF-268 CNS and in the experiment with A549 NSCLC was more than 10 µM each time.
Regarding `COc1ccccc1NC(=S)N/N=C(/c1ccccc1)c1ccccn1`, the TGI was found to be 3.62 µM in the experiment on MCF7 breast; 4.95 µM with DU-145 prostate; 23.9 µM with SK-MEL-28 melanoma; 16.7 µM in the experiment with SN12C renal; 10.5 µM in the experiment on OVCAR-8 ovarian; 6.14 µM in the experiment on RPMI-8226 leukemia. In addition, the figures for the TGI with SK-OV-3 ovarian, in the experiment with SF-268 CNS and in the experiment with A549 NSCLC were 13.8 µM, 20.4 µM and 16.3 µM, respectively.
As to `c1ccc(/C(=N/Nc2cnccn2)c2ncccn2)cc1`, the TGI with MCF7 breast, with DU-145 prostate, in the experiment with SK-MEL-28 melanoma, with SN12C renal, in the experiment on OVCAR-8 ovarian and with RPMI-8226 leukemia was more than 100 µM throughout. The TGI with SK-OV-3 ovarian, in the experiment on SF-268 CNS and in the experiment on A549 NSCLC was more than 100 µM in each case.
